Source: ChEMBL document CHEMBL1201862, “PubChem BioAssay data set” (2004)
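Five compound concentrations were applied to cells in 96-well plates for 48 hours; endpoints were derived by simple linear interpolation of the resulting dose-response curve. Abbreviation: GI50, concentration required for 50% inhibition of growth.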 Calls of active or inactive are those of the source. Cut-off read from the data, not from the text of the source: active = GI50 up to about 1.1 µM and inactive = higher.

How the values were obtained:
Experiment in all cases: inhibition of tumour cell growth, NCI panel, 48 h
[1] = test system: U-251
[2] = test system: DU-145
[3] = test system: SNB-19
[4] = test system: A549
[5] = test system: PC-3
[6] = test system: NCI/ADR-RES
[7] = test system: ACHN
[8] = test system: NCI-H522
[9] = test system: SF-295
[10] = test system: T47D
[11] = test system: K562
[12] = test system: SR
[13] = test system: MDA-N
[14] = test system: SNB-78
[15] = test system: DLD-1
[16] = test system: KM-20L2
[17] = test system: XF498
[18] = test system: HOP-18
[19] = test system: MCF7
[20] = test system: 786-0

Row | SMILES | GI50 [1] | GI50 [2] | GI50 [3] | GI50 [4] | GI50 [5] | GI50 [6] | GI50 [7] | GI50 [8] | GI50 [9] | GI50 [10] | GI50 [11] | GI50 [12] | GI50 [13] | GI50 [14] | GI50 [15] | GI50 [16] | GI50 [17] | GI50 [18] | GI50 [19] | GI50 [20]
1 | c1ccc2c(c1)c1ccccc1n2Cn1c2ccccc2c2ccccc21 | > 100 µM (inactive) | > 100 µM (inactive) | > 100 µM (inactive) | > 100 µM (inactive) | > 100 µM (inactive) | > 100 µM (inactive) | > 100 µM (inactive) | > 100 µM (inactive) | > 100 µM (inactive) | > 100 µM (inactive) | > 100 µM (inactive) | > 100 µM (inactive) | > 100 µM (inactive) | – | – | – | – | – | – | –
2 | CCOC(=O)/C=C(\C)c1ccc(C)cc1C | > 100 µM (inactive) | – | > 100 µM (inactive) | > 100 µM (inactive) | – | – | > 100 µM (inactive) | – | > 100 µM (inactive) | – | 45.1 µM (inactive) | 4.46 µM (inactive) | – | 38.1 µM (inactive) | 15.7 µM (inactive) | > 100 µM (inactive) | 23.4 µM (inactive) | 45 µM (inactive) | – | –
3 | COc1ccc(C2c3cc4c(cc3OC(Nc3ccccc3)C2C)OCO4)cc1 (stereo unspecified) | 56.8 µM (inactive) | 57.9 µM (inactive) | > 100 µM (inactive) | 22.5 µM (inactive) | 28.3 µM (inactive) | – | 21.8 µM (inactive) | 12.1 µM (inactive) | 25.5 µM (inactive) | 36.1 µM (inactive) | 15.2 µM (inactive) | 2.42 µM (inactive) | > 100 µM (inactive) | – | – | – | – | – | 23.6 µM (inactive) | –
4 | O=c1[nH]c2ccc([N+](=O)[O-])cc2nc1/C(=N/Nc1ccccc1)C(O)c1ccco1 (stereo unspecified) | > 100 µM (inactive) | – | > 100 µM (inactive) | 69.3 µM (inactive) | – | – | 33.9 µM (inactive) | 6.44 µM (inactive) | 83.4 µM (inactive) | – | 35.2 µM (inactive) | 66.2 µM (inactive) | – | > 100 µM (inactive) | > 100 µM (inactive) | 41.1 µM (inactive) | > 100 µM (inactive) | – | – | > 100 µM (inactive)
5 | Cc1c(-c2cc3n(n2)C(c2cccs2)C(C#N)=C(c2ccccc2)N3)c(=O)n(-c2ccccc2)n1C (stereo unspecified) | 32.7 µM (inactive) | – | > 100 µM (inactive) | > 100 µM (inactive) | – | > 86.3 µM (inactive) | – | 63.2 µM (inactive) | > 74.3 µM (inactive) | – | > 100 µM (inactive) | – | – | > 100 µM (inactive) | > 100 µM (inactive) | 24.9 µM (inactive) | > 79.4 µM (inactive) | > 100 µM (inactive) | > 86.5 µM (inactive) | –
6 | CCN(CC)CCSc1nc(-c2c[nH]c3nc(C)ccc3c2=O)n[nH]1 | > 100 µM (inactive) | > 100 µM (inactive) | > 100 µM (inactive) | > 100 µM (inactive) | > 100 µM (inactive) | > 100 µM (inactive) | > 100 µM (inactive) | > 100 µM (inactive) | > 100 µM (inactive) | > 100 µM (inactive) | > 100 µM (inactive) | – | > 100 µM (inactive) | – | – | – | – | – | > 100 µM (inactive) | > 100 µM (inactive)
7 | CC1=NN(C(=O)c2ccccc2)C(=O)C1/N=N/c1ccccc1C(=O)O (stereo unspecified) | 4.79 µM (inactive) | – | 5.75 µM (inactive) | 3.77 µM (inactive) | – | 4.76 µM (inactive) | – | 8.05 µM (inactive) | 4.1 µM (inactive) | – | 2.54 µM (inactive) | – | – | – | 6.89 µM (inactive) | 63.1 µM (inactive) | 2.72 µM (inactive) | 99.1 µM (inactive) | 3.86 µM (inactive) | –
8 | Clc1ccc(COc2ccccc2/C=N/c2c(-c3ccco3)nc3ccccn23)c(Cl)c1 | 33.7 µM (inactive) | 25.8 µM (inactive) | 44.1 µM (inactive) | > 100 µM (inactive) | 39.8 µM (inactive) | 30.6 µM (inactive) | > 100 µM (inactive) | > 100 µM (inactive) | 39.9 µM (inactive) | 24.7 µM (inactive) | 28.4 µM (inactive) | 10.2 µM (inactive) | 23 µM (inactive) | – | – | – | – | – | 12.5 µM (inactive) | 28.2 µM (inactive)
9 | Cc1c2cc[n+](C)cc2c(COC2OC(CO)C(O)C2O)c2c3ccccc3n(C)c12 (stereo unspecified) | 48.6 µM (inactive) | – | 14.5 µM (inactive) | 74.3 µM (inactive) | – | > 97.7 µM (inactive) | – | 63.1 µM (inactive) | 57 µM (inactive) | – | > 100 µM (inactive) | – | – | 83.9 µM (inactive) | > 100 µM (inactive) | 31.6 µM (inactive) | 50.7 µM (inactive) | 27.5 µM (inactive) | > 100 µM (inactive) | –
10 | CN(C)CCNC(=O)c1cccc2c1Nc1ccccc1S2 | 13.7 µM (inactive) | – | 9.75 µM (inactive) | 14.7 µM (inactive) | – | 16.2 µM (inactive) | – | – | 14.5 µM (inactive) | – | 14.9 µM (inactive) | – | – | 12.2 µM (inactive) | 15.6 µM (inactive) | 16.2 µM (inactive) | 12.6 µM (inactive) | 11.9 µM (inactive) | 13 µM (inactive) | –
11 | CCC1(C)NN=c2s/c(=C/c3ccc(OC)cc3)c(=O)n2N1 (stereo unspecified) | > 100 µM (inactive) | – | > 100 µM (inactive) | > 100 µM (inactive) | – | – | > 100 µM (inactive) | > 100 µM (inactive) | > 100 µM (inactive) | – | > 100 µM (inactive) | > 100 µM (inactive) | – | > 100 µM (inactive) | > 100 µM (inactive) | > 100 µM (inactive) | > 100 µM (inactive) | – | – | > 100 µM (inactive)
12 | O=C1CC2(CCC(O)(c3ccccc3)C(C(=O)c3ccccc3)C2)C(=O)c2ccccc2N1 (stereo unspecified) | > 100 µM (inactive) | > 100 µM (inactive) | > 100 µM (inactive) | > 100 µM (inactive) | > 100 µM (inactive) | > 100 µM (inactive) | – | – | > 100 µM (inactive) | > 100 µM (inactive) | > 100 µM (inactive) | > 100 µM (inactive) | > 100 µM (inactive) | – | – | – | – | – | > 100 µM (inactive) | –
13 | Cc1oc2nc(N(C)C)n3cnnc3c2c1C | > 100 µM (inactive) | > 100 µM (inactive) | > 100 µM (inactive) | > 100 µM (inactive) | > 100 µM (inactive) | > 100 µM (inactive) | > 100 µM (inactive) | > 100 µM (inactive) | > 100 µM (inactive) | > 100 µM (inactive) | > 100 µM (inactive) | > 100 µM (inactive) | – | – | – | – | – | – | > 100 µM (inactive) | > 100 µM (inactive)
14 | CCc1cc2c(oc3cc4ccccc4cc32)c(=O)[nH]1 | – | > 10 µM (inactive) | > 10 µM (inactive) | > 10 µM (inactive) | > 10 µM (inactive) | > 10 µM (inactive) | > 10 µM (inactive) | > 10 µM (inactive) | > 10 µM (inactive) | – | – | > 10 µM (inactive) | > 10 µM (inactive) | – | – | – | – | – | – | > 10 µM (inactive)
15 | CNc1cc2c(c3ccccc13)C(CCl)CN2C(=O)c1cc2cc(OC)c(OC)c(OC)c2[nH]1 (stereo unspecified) | 0.00191 µM (active) | 0.000442 µM (active) | 0.0124 µM (active) | 0.00153 µM (active) | 0.00214 µM (active) | 0.000991 µM (active) | 0.000124 µM (active) | < 0.01 µM (active) | 0.00155 µM (active) | 0.00322 µM (active) | 0.00188 µM (active) | 0.000275 µM (active) | 0.00243 µM (active) | – | – | – | – | – | 0.000822 µM (active) | 0.000809 µM (active)
16 | N=C(N)c1csc([C@@H]2O[C@H](CO)[C@@H](O)[C@H]2O)n1 | > 100 µM (inactive) | – | > 100 µM (inactive) | > 100 µM (inactive) | – | – | > 100 µM (inactive) | – | > 100 µM (inactive) | – | > 100 µM (inactive) | > 100 µM (inactive) | – | > 100 µM (inactive) | > 100 µM (inactive) | – | > 100 µM (inactive) | 59.7 µM (inactive) | – | –
